We go through eight compounds from the supplement of paper PMC11061612.

Holding throughout (test): Bliss excess, mean over the matrix (fraction); higher = more synergy
Assay [1] relates to Calu-3 (Lung Adenocarcinoma). The method in brief: (§1)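 Cell lines grown in DMEM/F12 or RPMI with 10% FBS were plated in 1536-well plates and held 24 hours at 37°C, 5% CO2 before 72 hours of exposure to two-drug dose matrices, with DMSO typically at 0.2%. CellTiter-Glo 2.0 luminescence gave viability, which was converted to inhibition. Vehicle wells were set to 0 and blank wells to 1. Combination Emax is the second-highest inhibition in the matrix, and Bliss excess is the observed combination effect minus the expected EA + EB − EA·EB, where EA and EB are the single-agent effects.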

Assay [2] has as its system NCI-H2085 (Non-Small Cell Lung Carcinoma). The method in brief: as §1
For a further assay, the system named is HOS (Osteosarcoma). The method in brief: as §1
Another assay deals with T98G (Glioblastoma). The gist of the method:
as §1

For assay [3], the system named is KURAMOCHI (Ovarian Carcinoma). The gist of the method:
as §1

Assay [4] relates to Hs-578-T (Breast Carcinoma). The method in brief: as §1
In assay [5] the test system is TE-9 (Esophageal Squamous Cell Carcinoma). The method in brief:
as §1

The subject of assay [6] is UM-UC-3 (Bladder Carcinoma). The method in brief: as §1

Take `C=CCn1c(=O)c2cnc(Nc3ccc(N4CCN(C)CC4)cc3)nc2n1-c1cccc(C(C)(C)O)n1` [AZD1775] + CCc1c2c(nc3ccc(O)cc13)-c1cc3c(c(=O)n1C2)COC(=O)[C@]3(O)CC [SN-38] (first compound max 1 µM, partner max 0.3 µM): the Bliss excess in assay [1] was -0.0341; in assay [2], -0.0202; with HOS (Osteosarcoma) it was -0.0934; in the assay with T98G (Glioblastoma) it was 0.0057; in assay [3] it was -0.0053; in assay [4], 0.0934. Further, the Bliss excess is -0.0022 in assay [5] and -0.0431 in assay [6].

Regarding `C=CCn1c(=O)c2cnc(Nc3ccc(N4CCN(C)CC4)cc3)nc2n1-c1cccc(C(C)(C)O)n1` [AZD1775] + Nc1ccn([C@@H]2O[C@H](CO)[C@@H](O)C2(F)F)c(=O)n1 [Gemcitabine] (first compound max 1 µM, partner max 0.3 µM), the Bliss excess in assay [1] is -0.013; in assay [2], 0.032; in the assay with HOS (Osteosarcoma) it was 0.0754; in the assay with T98G (Glioblastoma) it was 0.0257; in assay [3], 0.0284; in assay [4], 0.045. Also, the Bliss excess in assay [5] was -0.0253; in assay [6] it was 0.0758.

Regarding `CN(CCO)CC[C@H](CSc1ccccc1)Nc1ccc(S(=O)(=O)NC(=O)c2ccc(N3CCC([C@@H](O)c4ccccc4-c4ccc(Cl)cc4)CC3)cc2)cc1S(=O)(=O)C(F)(F)F` [AZD4320] + CC(=O)O[C@H]1C(=O)[C@@]2(C)[C@H]([C@H](OC(=O)c3ccccc3)[C@]3(O)C[C@H](OC(=O)[C@H](O)[C@@H](NC(=O)c4ccccc4)c4ccccc4)C(C)=C1C3(C)C)[C@]1(OC(C)=O)CO[C@@H]1C[C@@H]2O [Paclitaxel] (first compound max 1 µM, 7x7, partner max 3 µM), the Bliss excess in assay [1] is -0.0045; in assay [2], 0.207; in the assay on HOS (Osteosarcoma), 0.184; in the assay with T98G (Glioblastoma), 0.0613; in assay [3] it was 0.0929; in assay [4], 0.047. Also, the Bliss excess in assay [5] is 0.0929; in assay [6] it was 0.192.

Turning to `CN(CCO)CC[C@H](CSc1ccccc1)Nc1ccc(S(=O)(=O)NC(=O)c2ccc(N3CCC([C@@H](O)c4ccccc4-c4ccc(Cl)cc4)CC3)cc2)cc1S(=O)(=O)C(F)(F)F` [AZD4320] + CS(=O)(=O)CCNCc1ccc(-c2ccc3ncnc(Nc4ccc(OCc5cccc(F)c5)c(Cl)c4)c3c2)o1 [Lapatinib] (first compound max 1 µM, 7x7, partner max 10 µM), the Bliss excess is 0.0224 in assay [1]; 0.019 in assay [2]; -0.0381 in the assay with HOS (Osteosarcoma); 0.0029 in the assay on T98G (Glioblastoma); 0.0392 in assay [3]; 0.0188 in assay [4]. In addition, the Bliss excess was 0.0137 in assay [5] and 0.0099 in assay [6].

`CN(CCO)CC[C@H](CSc1ccccc1)Nc1ccc(S(=O)(=O)NC(=O)c2ccc(N3CCC([C@@H](O)c4ccccc4-c4ccc(Cl)cc4)CC3)cc2)cc1S(=O)(=O)C(F)(F)F` [AZD4320] + Nc1ccn([C@@H]2O[C@H](CO)[C@@H](O)C2(F)F)c(=O)n1 [Gemcitabine] (first compound max 1 µM, 7x7, partner max 0.3 µM): the Bliss excess in assay [1] was 0.0076; in assay [2] it was 0.0228; in the assay on HOS (Osteosarcoma), 0.0045; in the assay with T98G (Glioblastoma), -0.0265; in assay [3], 0.0216; in assay [4], 0.14. Also, the Bliss excess was 0.0151 in assay [5] and -0.0229 in assay [6].

As to `Cc1c2c(nn1C)CSCc1cc(n(C)n1)CSc1cc(c3ccccc3c1)OCCCc1c(C(=O)O)n(C)c3c-2c(Cl)ccc13` [AZD5991] + CC(=O)O[C@H]1C(=O)[C@@]2(C)[C@H]([C@H](OC(=O)c3ccccc3)[C@]3(O)C[C@H](OC(=O)[C@H](O)[C@@H](NC(=O)c4ccccc4)c4ccccc4)C(C)=C1C3(C)C)[C@]1(OC(C)=O)CO[C@@H]1C[C@@H]2O [Paclitaxel] (first compound max 1 µM, 7x7, partner max 3 µM), the Bliss excess in assay [1] is -0.0064; in assay [2] it was 0.0904; in the assay on HOS (Osteosarcoma) it was 0.103; in the assay on T98G (Glioblastoma), -0.0798; in assay [3], 0.0479; in assay [4], 0.0368. In addition, the Bliss excess was 0.0317 in assay [5] and -0.0693 in assay [6].

Consider `Cc1c2c(nn1C)CSCc1cc(n(C)n1)CSc1cc(c3ccccc3c1)OCCCc1c(C(=O)O)n(C)c3c-2c(Cl)ccc13` [AZD5991] + CS(=O)(=O)CCNCc1ccc(-c2ccc3ncnc(Nc4ccc(OCc5cccc(F)c5)c(Cl)c4)c3c2)o1 [Lapatinib] (first compound max 1 µM, 7x7, partner max 10 µM), for which the Bliss excess in assay [1] was 0.0244; in assay [2], 0.0494; with HOS (Osteosarcoma), -0.0365; in the assay on T98G (Glioblastoma) it was -0.0233; in assay [3] it was -0.012; in assay [4], -0.0984. The Bliss excess in assay [5] is -0.0218; in assay [6] it was -0.001.

Turning to `N#Cc1cnc(Nc2cc(NC[C@H]3CNCCO3)c(C(F)(F)F)cn2)cn1` [SRA737] + C=CCn1c(=O)c2cnc(Nc3ccc(N4CCN(C)CC4)cc3)nc2n1-c1cccc(C(C)(C)O)n1 [AZD1775] (first compound max 10 µM, partner max 1 µM), the Bliss excess was 0.0228 in assay [1]; 0.06 in the assay with HOS (Osteosarcoma); 0.0169 in the assay on T98G (Glioblastoma); -0.0194 in assay [3]; 0.0771 in assay [4]; 0.0457 in assay [5]. In assay [6], the Bliss excess worked out at 0.0749.
